The subject of one test is blood GIP. The test is described as follows: Inhibitory action against blood GIP increase, intragastric administration test of starch paste sample. The class given is in vivo, C57BL/6J mice. Particulars: Table 6, AUC for 120 minutes, relative value with control administration group taken as 100, 175 μM in terms of CA. On the procedure:
For experiments, C57BL/6J mice (male, 8 week-old, manufactured by CLEA Japan, Inc.) grouped so that each group has the same body weight (N=16/group) were used and were subjected to the tests.
Starch (waxy corn, Amioca) was dissolved in distilled water in an amount 4 times the amount of the starch and gelatinized (pregelatinized) by autoclaving (at 121° C. under a pressure of 2 atmospheres for 20 minutes). Each of the test samples (Sample Nos. 2 to 4 and 8) shown in Table 4 was emulsified in triolein containing egg yolk lecithin and albumin to obtain an emulsified oil. […]
The starch paste sample containing the test sample was intragastrically administered to a mouse fasted for 20 hours, and part of the blood was collected from the orbital venous plexus over time (before the administration, and at 10, 30, 60, and 120 minutes after the administration). […] The collected blood was subjected to centrifugation, and thereafter the blood plasma was prepared and measured using GIP ELISA kit (EMD Millipore Corporation). The blood GIP amount of each sample after the administration was calculated by measuring the maximum value (Cmax) and the area under the concentration curve (AUC) for 120 minutes. […]

The conditions of test [1]: in vivo; Patent Literatures 9 to 11; cited from earlier work.
In test [2] the target is T1, lipase from porcine pancreas (Sus scrofa, UniProt P00591).
T1 construct: lipase from porcine pancreas [SIGMA]; purchased SIGMA; host or cells: porcine pancreas (tissue-derived preparation)
T1 sequence (P00591 1-450): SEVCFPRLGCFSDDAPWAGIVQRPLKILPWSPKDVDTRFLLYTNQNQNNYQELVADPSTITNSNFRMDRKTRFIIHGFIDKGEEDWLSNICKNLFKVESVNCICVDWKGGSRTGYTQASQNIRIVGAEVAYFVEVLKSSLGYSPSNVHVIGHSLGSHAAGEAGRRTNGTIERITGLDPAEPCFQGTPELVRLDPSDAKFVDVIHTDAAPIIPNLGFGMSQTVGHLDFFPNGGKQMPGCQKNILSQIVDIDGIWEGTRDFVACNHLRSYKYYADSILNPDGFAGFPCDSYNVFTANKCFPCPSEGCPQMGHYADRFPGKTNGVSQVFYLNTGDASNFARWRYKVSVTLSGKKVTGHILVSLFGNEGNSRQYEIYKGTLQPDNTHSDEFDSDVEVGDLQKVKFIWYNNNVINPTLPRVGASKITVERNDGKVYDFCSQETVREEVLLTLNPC
The test is described as follows: Inhibitory action against lipase: amount of free fatty acid produced from bile acid micelles (artificial in vivo system). It counts as biochemical.
Protocol: In this example, an emulsification liquid containing bile acid micelles was produced as an artificial in vivo system. In the artificial in vivo system, the inhibitory action of the test samples against the lipolytic activity by lipase in vivo was evaluated by measuring the amount of free fatty acid collected from the bile acid micelles after application of lipase in the presence of the test samples.
10 g of olive oil (Wako Pure Chemical Industries, Ltd.) was added to each test sample (30 mg in terms of CA amount), which was heated at 70° C. in an oven for 20 minutes to be dissolved.
0.92 g of olive oil in which each test sample was dissolved, 40 mg of egg yolk lecithin (Wako Pure Chemical Industries, Ltd.), and 24 mL of the bile acid solution were added to a 50-mL tube, followed by cooling with ice, and thereafter emulsification was performed thereon using an ultrasonic homogenizer. […] Thereafter, 2.5 mL of a 0.1% lipase solution (0.1N TRIS-HCl buffer solution of lipase from porcine pancreas [SIGMA]) was added thereto, which was mixed with stirring using a vortex mixer for 10 seconds, followed by incubation in a water bath at 37° C. for 10 minutes. The tube was moved into an oil bath at 70° C., was subjected to enzyme inactivation for 15 minutes, and thereafter was mixed again with stirring using a vortex mixer to collect 100 μL.
The amount of free fatty acid in the reaction solution was determined using NEFA-C Test wako. That is, 800 μL of a coloring reagent A was added to 100 μL of the sample, which was stirred using a vortex mixer, and thereafter was heated at 37° C. for 10 minutes. After cooling, 1600 μL of a coloring reagent B was added thereto, followed by stirring, and was heated again at 37° C. for 10 minutes. This was subjected to an ultraviolet/visible spectrophotometer to measure an absorbance at 550 nm. Thus, the amount of free fatty acid produced was obtained. Each reaction solution was measured 3 times or 4 times by the same operation.

Structures are written as SMILES. Marks after values point to notes of the source that are not given here.

In the case of `CC(C)=CCC[C@@H](C)[C@H]1CC[C@@]2(C)[C@@H]3CC[C@H]4C(C)(C)[C@@H](O)CC[C@@]45C[C@@]35CC[C@]12C` [Purified product of cycloartenol, cycloartenol], in the test on blood GIP, the “GIP (AUC)” value was 81 *. Moreover, in test [1], the “inhibitory activity against GIP increase” value was “exerts inhibitory activities” and the “inhibitory activity against postprandial blood glucose increase” value is on record as “exerts inhibitory activities”. The “amount of free fatty acid produced compared to the control / lipase inhibitory activity (in words)” value in test [2] (Example 1) was “reduced”. In addition, in test [2] (Example 1, test sample 30 mg in terms of CA in 10 g olive oil, lipase 37° C. 10 minutes, NEFA-C Test wako, absorbance 550 nm, control (olive oil alone) 0.376), the “Amount of free fatty acid produced, Average” value was found to be 0.276. Further, the “amount of free fatty acid produced compared with the control / lipase inhibitory activity (in words)” value in test [2] (Example 2) is reported as “reduced”. The “Amount of free fatty acid produced, Average” value in test [2] (Example 2, same manner as Example 1, control (olive oil alone) 0.296) was 0.238.

These data come from patent publication US20170014430A1, “Cycloartenol-Containing Composition” (KAO CORPORATION, priority 2014, published 2017).
